Data on 42 compounds can be found in patent publication US5874432A, “Saccharin derivatives useful as proteolytic enzyme inhibitors and compositions and method of use thereof” (priority 1997, dated 1999).

This experiment addresses T1, human leukocyte elastase (Homo sapiens, UniProt P08246).
T1 sequence (P08246 30-267): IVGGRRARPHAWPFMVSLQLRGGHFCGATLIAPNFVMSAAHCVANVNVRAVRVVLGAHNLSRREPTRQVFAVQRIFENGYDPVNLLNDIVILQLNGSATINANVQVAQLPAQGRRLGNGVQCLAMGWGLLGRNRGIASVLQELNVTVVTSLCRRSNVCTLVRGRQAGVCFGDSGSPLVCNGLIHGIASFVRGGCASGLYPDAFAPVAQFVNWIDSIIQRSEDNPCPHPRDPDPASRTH
In words: elastase inhibition using human leukocyte elastase (kon and Ki*). In kind it is biochemical. Conditions: for Ki: Ki* = koff/kon, read-out: Elastase Ki *; for kon: read-out: Elastase 10^-3 × kon.

The mark [1] stands for this setting: rate of inactivation of enzyme, value is 10^-3 × kon.

Each structure is given as a SMILES string. Where two headings read alike, the source gives them in different places.

Description: Thus, instead of measuring a Ki, a Ki * is calculated which is defined as the ratio of the koff /kon, the rate of reactivation of the enzyme to the rate of inactivation of the enzyme. The values of koff and kon are measured and Ki * is then calculated.
The rate of inactivation, kon, of enzymatic activity was determined for the compounds tested by measuring the enzyme activity of an aliquot of the respective enzyme as a function of time after addition of the test compound. […] The rate of inactivation is then equal to [formula] where [I] is the concentration of the inhibiting compound.
The reactivation constant, koff, is similarly determined and the inhibition constant, Ki *, is then calculated as

On to `O=C1c2c(Cl)cccc2S(=O)(=O)N1CSc1nnnn1-c1ccccc1` [Example 4, 4-chloro-2-(1-phenyl-1H-tetrazol-5-ylthiomethyl)saccharin], for which the Ki (commonly a measure of affinity in units of concentration, obtained from inhibition or displacement) was 12 nM. Further, the on-rate constant (kon) (commonly the second-order rate constant of association) under setting [1] turned out to be 20000 M⁻¹ s⁻¹.
For the compound `O=C1c2ccccc2S(=O)(=O)N1CSc1nnnn1C1CCCCC1` [Example 9, 2-(1-cyclohexyl-1H-tetrazol-5-ylthiomethyl)saccharin], the association rate constant (kon) under setting [1] stood at 2500 M⁻¹ s⁻¹.
`O=C1c2cc([N+](=O)[O-])ccc2S(=O)(=O)N1CSc1nnnn1-c1ccccc1` [Example 11, 5-nitro-2-(1-phenyl-1H-tetrazol-5-ylthiomethyl)saccharin]: the association rate constant (kon) was 4600 M⁻¹ s⁻¹.
As for `O=C1c2ccccc2S(=O)(=O)N1COc1ccc([N+](=O)[O-])cc1` [Example 15, 2-(4-nitrophenoxymethyl)saccharin], the inhibition constant Ki came to 69 nM. Also, the kon under setting [1] is 3200 M⁻¹ s⁻¹.
For the compound `O=C(CC(c1ccccc1)c1ccccc1)Nc1ccc2c(c1)C(=O)N(CSc1nnnn1-c1ccccc1)S2(=O)=O` [Example 16, 5-(3,3-diphenylpropionamido)-2-(1-phenyl-1H-tetrazol-5-ylthiomethyl)saccharin], the inhibition constant Ki amounted to 2600 nM.
Take `COC(=O)C(Sc1nnnn1-c1ccccc1)N1C(=O)c2ccccc2S1(=O)=O` (stereo not drawn) [Example 17, methyl 2-(1-phenyl-1H-tetrazol-5-ylthio)-2-(2-saccharinyl)acetate]: the Ki turned out to be 270 nM. Also, the on-rate constant (kon) under setting [1] amounted to 2900 M⁻¹ s⁻¹.
Turning to `O=C1c2ccccc2S(=O)(=O)N1C(Sc1nnnn1-c1ccccc1)c1ccccc1` (stereo not drawn) [Example 19, 2-(1-phenyl-1H-tetrazol-5-ylthiophenylmethyl)saccharin], the Ki was 8500 nM.
On to `O=C1c2c(Br)cccc2S(=O)(=O)N1CCl` [Example 21, 2-chloromethyl-4-bromosaccharin], for which the Ki worked out at 0.5 nM. For the same compound, under setting [1], the on-rate constant (kon) stood at 950000 M⁻¹ s⁻¹.
For `COc1cccc2c1C(=O)N(CCl)S2(=O)=O` [Example 22A, 2-chloromethyl-4-methoxysaccharin] the same measures were 6 nM and 12400 M⁻¹ s⁻¹.
Consider `CCC(C)c1cccc2c1C(=O)N(CCl)S2(=O)=O` (stereo not drawn) [Example 22B, 2-chloromethyl-4-sec.-butylsaccharin], for which the inhibition constant (Ki) is 90 nM. In addition, the kon under setting [1] is 2400 M⁻¹ s⁻¹.
The corresponding values for `CCC(CC)c1cccc2c1C(=O)N(CCl)S2(=O)=O` [Example 22C, 2-chloromethyl-4-(3-pentyl) saccharin] are 0.4 nM and 105000 M⁻¹ s⁻¹.
For `O=C1c2cccc(Cl)c2S(=O)(=O)N1CCl` [Example 22D] the same measures were 1.3 nM and 75800 M⁻¹ s⁻¹.
`CC(C)c1cccc2c1C(=O)N(CCl)S2(=O)=O` [Example 22E, 2-chloromethyl-4-isopropylsaccharin]: the Ki amounted to 91 nM. Besides, under setting [1], the on-rate (kon) came out at 4700 M⁻¹ s⁻¹.
With `COc1ccc2c(c1OC)C(=O)N(CCl)S2(=O)=O` [Example 22F], the Ki came to 6.5 nM. For the same compound, under setting [1], the kon stood at 20000 M⁻¹ s⁻¹.
The corresponding values for `COC(=O)c1cccc2c1C(=O)N(CCl)S2(=O)=O` [Example 22G] are 50 nM and 3000 M⁻¹ s⁻¹.
On to `CCOc1cccc2c1C(=O)N(CCl)S2(=O)=O` [Example 22H], for which the inhibition constant (Ki) is 1.2 nM. The kon under setting [1] is 25000 M⁻¹ s⁻¹.
For `O=C1c2ccccc2S(=O)(=O)N1CF` [Example 27, 2-fluoromethylsaccharin] the same measures were 13 nM and 7500 M⁻¹ s⁻¹.
Take `CCc1cccc2c1C(=O)N(CCl)S2(=O)=O` [Example 28]: the Ki is 2.5 nM. The “Elastase 10^-3 × kon” value under setting [1] was 50.7 M^-1 sec^-1.
As to `Cc1ccc(C)c2c1C(=O)N(CCl)S2(=O)=O` [Example 29, 2-chloromethyl-4,7-dimethylsaccharin], the Ki came out at 120 nM. Also, under setting [1], the kon is 1100 M⁻¹ s⁻¹.
The corresponding values for `O=C(O)c1cccc(-n2nnn(CN3C(=O)c4ccccc4S3(=O)=O)c2=S)c1` [Example 30-O] are 2000 nM and 30 M⁻¹ s⁻¹.
For `Cc1nnc(SCN2C(=O)c3ccccc3S2(=O)=O)s1` [Example 30AB] the same measures were 23 nM and 2800 M⁻¹ s⁻¹.
With `Cn1cnnc1SCN1C(=O)c2ccccc2S1(=O)=O` [Example 30AC], the kon under setting [1] turned out to be 190 M⁻¹ s⁻¹.
Consider `CSc1nn(CN2C(=O)c3ccccc3S2(=O)=O)c(=S)s1` [Example 30AD], for which the Ki was found to be 11.6 nM. Also, the kon under setting [1] was found to be 7000 M⁻¹ s⁻¹.
Consider `O=C1c2ccccc2S(=O)(=O)N1CSc1nc(-c2ccccc2)ns1` [Example 30AF], for which the inhibition constant (Ki) was determined as 12.5 nM. Besides, the “Elastase 10^-3 × kon” value under setting [1] worked out at 4.2 M^-1 sec^-1.
For the compound `O=C1c2ccccc2S(=O)(=O)N1CSc1nnc(S)s1` [Example 30AH], the Ki amounted to 60 nM. Under setting [1], the kon was found to be 1100 M⁻¹ s⁻¹.
The corresponding values for `CC(C)c1cccc2c1C(=O)N(Cn1nnn(-c3ccccc3)c1=S)S2(=O)=O` [Example 30AJ] are 15.5 nM and 1800 M⁻¹ s⁻¹.
The corresponding values for `Cc1nnc(SCN2C(=O)c3c(C(C)C)cccc3S2(=O)=O)s1` [Example 30AM] are 4.5 nM and 12300 M⁻¹ s⁻¹.
The corresponding values for `CC(C)c1cccc2c1C(=O)N(CSc1nnnn1C)S2(=O)=O` [Example 30AN] are 30 nM and 19000 M⁻¹ s⁻¹.
Take `CCOC(=O)Cn1nnnc1SCN1C(=O)c2ccccc2S1(=O)=O` [Example 30AP]: the Ki came to 51 nM. Under setting [1], the kon is 1300 M⁻¹ s⁻¹.
For `O=C1c2ccccc2S(=O)(=O)N1CSc1nnnn1CCO` [Example 30AQ] the same measures were 260 nM and 900 M⁻¹ s⁻¹.
For `COC(=O)c1cn(-c2ccccc2)c(SCN2C(=O)c3ccccc3S2(=O)=O)n1` [Example 30AR] the same measures were 153 nM and 300 M⁻¹ s⁻¹.
For `CN(C)C(=O)Cn1nnnc1SCN1C(=O)c2ccccc2S1(=O)=O` [Example 30AS] the same measures were 40 nM and 1700 M⁻¹ s⁻¹.
Take `CCOc1cccc2c1C(=O)N(CSc1nnnn1-c1ccccc1)S2(=O)=O` [Example 30AT]: the association rate constant (kon) under setting [1] is 45300 M⁻¹ s⁻¹.
Same read-out and setting: for `CC(C)Oc1cccc2c1C(=O)N(CSc1nnnn1-c1ccccc1)S2(=O)=O` [Example 30AU] the value was 8900 M⁻¹ s⁻¹.
With `CCc1cccc2c1C(=O)N(CSc1nnnn1CC(=O)N(C)C)S2(=O)=O` [Example 30AV], the Ki stood at 15 nM. Moreover, the kon under setting [1] amounted to 7600 M⁻¹ s⁻¹.
The corresponding values for `CC(C)c1cccc2c1C(=O)N(CSc1nnnn1CC(=O)N(C)C)S2(=O)=O` [Example 30AW] are 1 nM and 30000 M⁻¹ s⁻¹.
The corresponding values for `CCOc1cccc2c1C(=O)N(CSc1nnnn1CC(=O)N(C)C)S2(=O)=O` [Example 30AX] are 16 nM and 7500 M⁻¹ s⁻¹.
For the compound `CC(C)(C)CC(C)(C)c1ccc2c(c1)C(=O)N(CSc1nnnn1-c1ccccc1)S2(=O)=O` [Example 30A], the Ki amounted to 10500 nM.
For `O=C1c2c(-c3ccccc3)cccc2S(=O)(=O)N1CSc1nnnn1-c1ccccc1` [Example 30BC], under setting [1], the kon amounted to 5800 M⁻¹ s⁻¹.
Regarding `O=C1c2ccccc2S(=O)(=O)N1CSc1nc2ccc([N+](=O)[O-])cc2s1` [Example 30BD], the Ki was 8 nM. In addition, the kon under setting [1] amounted to 11700 M⁻¹ s⁻¹.
For `O=C1c2ccccc2S(=O)(=O)N1CSc1nc2ccc([N+](=O)[O-])cc2o1` [Example 30BE] the same measures were 250 nM and 7400 M⁻¹ s⁻¹.
Take `O=C1c2ccccc2C(=O)N1CN1C(=O)c2ccccc2S1(=O)=O` [Example 30BF]: the Ki amounted to 40000 nM. The on-rate constant (kon) under setting [1] worked out at 20 M⁻¹ s⁻¹.
